Experiments:
[1] = biological target: T1, cloned human 5-HT6 receptor (Homo sapiens, UniProt P50406); assay: 5-HT6 Receptor Binding Assay ([3H]-LSD radioligand, SPA); conditions: read-out: 5HT6 % inh @ 1 uM
T1 construct: host or cells: HeLa cells, G-418 selection, membrane preparation
Protocol: 5-HT6 Receptor Binding Assay
Hela cells containing the cloned human 5-HT6 receptor were acquired from Dr. David R. Sibley's laboratory in National Institute of Health (see Sibley, D. R., J. Neurochemistry, 66, 47-56, 1996). Cells were grown in high glucose Dulbecco's modified Eagle's medium, supplemented with L-glutamine, 0.5% sodium pyruvate, 0.3% penicillin-streptomycin, 0.025% G-418 and 5% Gibco fetal bovine serum and then were harvested, when confluent, in cold phosphate buffered saline.
Harvested intact cells were washed once in cold phosphate-buffered saline. The cells were pelleted and resuspended in 100 ml of cold 50 mM Tris, 5 mM EDTA and 5 mM EGTA, pH 7.4. Homogenization was with a Vir Tishear generator, 4 cycles for 30 seconds each at setting 50. The homogenized cells were centrifuged at […] for 10 minutes and the supernatant was removed. The pellet was resuspended in 100 ml of the above buffer and rehomogenized for 2 cycles. The rehomogenized cells were then centrifuged at […] for 10 minutes and the supernatant was removed. The combined supernatant (200 ml) was centrifuged at 23,000 RPM (80,000×g) for 1 hour in a Beckman Rotor (42.1 Ti). The membrane pellet was resuspended in […] of assay buffer containing HEPES 20 mM, MgCl2 10 mM, NaCl 150 mM, EDTA 1 mM, pH 7.4 and stored frozen in aliqouts at −70° C.
The radioligand binding assay used [^3H]-lysergic acid diethylamide (LSD). The assay was carried out in Wallac 96-well sample plates by the addition of 11 μl of the test sample at the appropriate dilution (the assay employed 11 serial concentrations of samples run in duplicate), 11 μl of radioligand, and 178 μl of a washed mixture of WGA-coated SPA beads and membranes in binding buffer. The plates were shaken for about 5 minutes and then incubated at room temperature for 1 hour. The plates were then loaded into counting cassettes and counted in a Wallac MicroBeta Trilux scintillation counter.
Binding Constant Determination may be obtained by performing serial dilutions, e.g., eleven dilutions, of test compounds into assay plates using the PE/Cetus Pro/Pette pipetter. These dilutions are followed by radioligand and the bead-membrane mixture prepared as described above. After obtaining the specifically bound cpm, the data are fit to a one-site binding model using GraphPad Prism ver. 2.0. Estimated IC50 values are converted to Ki values using the Cheng-Prusoff equation (Cheng, Y. C. et al., Biochem. Pharmacol., 22, 3099-108, 1973).

T1 sequence (P50406 whole entry): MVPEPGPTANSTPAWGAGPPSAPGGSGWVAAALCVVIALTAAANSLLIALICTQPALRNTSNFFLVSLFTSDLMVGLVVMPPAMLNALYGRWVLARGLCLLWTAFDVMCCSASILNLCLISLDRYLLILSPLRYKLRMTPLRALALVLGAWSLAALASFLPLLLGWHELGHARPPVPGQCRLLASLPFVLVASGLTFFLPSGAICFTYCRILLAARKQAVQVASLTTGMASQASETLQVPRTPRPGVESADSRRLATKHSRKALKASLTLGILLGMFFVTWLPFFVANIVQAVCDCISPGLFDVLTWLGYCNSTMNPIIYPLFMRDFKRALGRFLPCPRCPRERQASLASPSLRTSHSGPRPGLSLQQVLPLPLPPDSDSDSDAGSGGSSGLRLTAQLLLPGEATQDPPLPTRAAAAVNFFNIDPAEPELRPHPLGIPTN

| inhibition at 1 µM [1] [%] | melting point [°C] | SMILES |
| --- | --- | --- |
| 91.7 | 155 to 156.2 | CN1CCCN(c2cccc(C(=O)N3CCCC[C@@H]3c3cccc(F)c3)n2)CC1 [Example 80, [(R)-2-(3-Fluoro-phenyl)-piperidin-1-yl]-[6-(4-methyl-[1,4]diazepan-1-yl)-pyridin-2-yl]-methanone] |
| 78.5 | 82 to 84 | Cc1cccc(O[C@@H]2CCN(C(=O)c3cccc(N4CCCN(C)CC4)n3)C2)c1 [Example 19, [6-(4-Methyl-[1,4]diazepan-1-yl)-pryidin-2-yl]-((R)-3-m-tolyloxy-pyrrolidin-1-yl)-methanone] |
| 89.6 | 172 to 174 | O=C(c1cccc(N2CCCNCC2)n1)N1CCC[C@@H](Oc2cccc(F)c2)C1 [Example 50, (6-[1,4]Diazepan-1-yl-pyridin-2-yl)-[(R)-3-(3-fluoro-phenoxy)-piperidin-1-yl]-methanone] |
| 86.4 | 140 | Cc1ccc(O[C@@H]2CCCN(C(=O)c3cccc(N4CCCNCC4)n3)C2)cc1 [Example 54, (6-[1,4]Diazepan-1-yl-pyridin-2-yl)-((R)-3-p-tolyloxy-piperidin-1-yl)-methanone] |
| 87.6 | 80 to 81 | CN1CCN(c2cccc(C(=O)N(C)Cc3ccccc3F)n2)CC1 [Example 64, 6-(4-Methyl-piperazin-1-yl)-pyridine-2-carboxylic acid (2-fluoro-benzyl)-methyl-amide] |
| 89.4 | 98 to 99 | Cc1ccc(CN(C)C(=O)c2cccc(N3CCN(C)CC3)n2)cc1 [Example 90, 6-(4-Methyl-piperazin-1-yl)-pyridine-2-carboxylic acid methyl-(4-methyl-benzyl)-amide] |
| 96.4 | 89 to 90 | Cc1cccc(OC2CCN(C(=O)c3cccc(C4CCN(C)C4)n3)CC2)c1 (centres unmarked) [Example 17, [6-(1-Methyl-pyrrolidin-3-yl)-pyridin-2-yl]-(4-m-tolyloxy-piperidin-1-yl)-methanone] |
| 90.2 | 195.3 to 196.4 | CN1CCN(c2cccc(S(=O)(=O)N3CCCCC3c3ccccc3F)n2)CC1 (centres unmarked) [Example 79, 1-{6-[2-(2-Fluoro-phenyl)-piperidine-1-sulfonyl]-pyridin-2-yl}-4-methyl-piperazine] |
| 94.5 | 156.8 to 157 | O=C(c1cccc(N2CCNCC2)n1)N1CCCCC1c1cccc(F)c1 (centres unmarked) [Example 27, [2-(3-Fluoro-phenyl)-piperidin-1-yl]-(6-piperazin-1-yl-pyridin-2-yl)-methanone] |
| 75.1 | 102 to 103.2 | O=C(c1cccc(N2CCNCC2)n1)N1CCCCC1c1ccc(F)cc1 (centres unmarked) [Example 29, [2-(4-Fluoro-phenyl)-piperidin-1-yl]-(6-piperazin-1-yl-pyridin-2-yl)-methanone] |
| 74.9 | 77 to 78 | CN1CCN(c2cccc(C(=O)N(C)Cc3cccc(F)c3)n2)CC1 [Example 70, 6-(4-Methyl-piperazin-1-yl)-pyridine-2-carboxylic acid (3-fluoro-benzyl)-methyl-amide] |
| 88.9 | 118 to 119 | CN1CCN(c2cccc(C(=O)N3CCCC(c4ccccc4F)C3)n2)CC1 (centres unmarked) [Example 58, [3-(2-Fluoro-phenyl)-piperidin-1-yl]-[6-(4-methyl-piperazin-1-yl)-pyridin-2-yl]-methanone] |
| 98.9 | 110 to 112 | CN1CCCN(c2cccc(C(=O)N3CCC[C@H](Oc4cccc(Cl)c4)C3)n2)CC1 [Example 87, [(S)-3-(3-Chloro-phenoxy)-piperidin-1-yl]-[6-(4-methyl-[1,4]diazepan-1-yl)-pyridin-2-yl]-methanone] |
| 86.7 | 142 to 143 | Cc1ccccc1[C@@H](C)N(C)C(=O)c1cccc(N2CCN(C)CC2)n1 [Example 61, 6-(4-Methyl-piperazin-1-yl)-pyridine-2-carboxylic acid methyl-((R)-1-o-tolyl-ethyl)-amide] |
| 99.1 | 113 to 115 | CN1CCCN(c2cccc(C(=O)N3CCC[C@H](Oc4cccc(F)c4)C3)n2)CC1 [Example 85, [(S)-3-(3-Fluoro-phenoxy)-piperidin-1-yl]-[6-(4-methyl-[1,4]diazepan-1-yl)-pyridin-2-yl]-methanone] |
| 87.1 | 81 to 82 | CN1CCN(c2cccc(C(=O)N(C)Cc3cccc(Cl)c3)n2)CC1 [Example 71, 6-(4-Methyl-piperazin-1-yl)-pyridine-2-carboxylic acid (3-chloro-benzyl)-methyl-amide] |
| 70 | 188 to 188.7 | Cc1ccccc1[C@H]1CCCCN1C(=O)c1cccc(N2CCN(C)CC2)n1 [Example 62, [6-(4-Methyl-piperazin-1-yl)-pyridin-2-yl]-((R)-2-o-tolyl-piperidin-1-yl)-methanone] |
| 99.7 | 184 to 185.6 | Cc1cccc(O[C@H]2CCCN(C(=O)c3cccc(N4CCCNCC4)n3)C2)c1 [Example 44, (6-[1,4]Diazepan-1-yl-pyridin-2-yl)-((S)-3-m-tolyloxy-piperidin-1-yl)-methanone] |
| 90.7 | 111.7 to 112.2 | CN1CCN(c2cccc(C(=O)N3CCCC[C@H]3c3ccccc3F)n2)CC1 [Example 56, [(S)-2-(2-Fluoro-phenyl)-piperidin-1-yl]-[6-(4-methyl-piperazin-1-yl)-pyridin-2-yl]-methanone] |
| 95.4 | 118 to 119.7 | Cc1ccccc1O[C@H]1CCCN(C(=O)c2cccc(N3CCCNCC3)n2)C1 [Example 45, (6-[1,4]Diazepan-1-yl-pyridin-2-yl)-((S)-3-o-tolyloxy-piperidin-1-yl)-methanone] |
| 96.3 | 142 to 142.5 | Cc1cccc([C@H]2CCCCN2C(=O)c2cccc(N3CCN(C)CC3)n2)c1 [Example 52, [6-(4-Methyl-piperazin-1-yl)-pyridin-2-yl]-((R)-2-m-tolyl-piperidin-1-yl)-methanone] |
| 98.2 | 78 to 80 | Cc1cccc(O[C@H]2CCN(C(=O)c3cccc(N4CCCN(C)CC4)n3)C2)c1 [Example 68, [6-(4-Methyl-[1,4]diazepan-1-yl)-pyridin-2-yl]-((S)-3-m-tolyloxy-pyrrolidin-1-yl)-methanone] |
| 89.6 | 73 to 74 | CN1CCN(c2cccc(C(=O)N(C)Cc3ccccc3Cl)n2)CC1 [Example 65, 6-(4-Methyl-piperazin-1-yl)-pyridine-2-carboxylic acid (2-chloro-benzyl)-methyl-amide] |
| 97.3 | 84 to 86 | CN1CCN(c2cccc(C(=O)N3CCC[C@H](Oc4cccc(F)c4)C3)n2)CC1 [Example 75, [(S)-3-(3-Fluoro-phenoxy)-piperidin-1-yl]-[6-(4-methyl-piperazin-1-yl)-pyridin-2-yl]-methanone] |
| 97.7 | 90 to 92 | CN1CCCN(c2cccc(C(=O)N3CC[C@H](Oc4ccccc4Cl)C3)n2)CC1 [Example 69, [(S)-3-(2-Chloro-phenoxy)-pyrrolidin-1-yl]-[6-(4-methyl-[1,4]diazepan-1-yl)-pyridin-2-yl]-methanone] |
| 97.7 | 90 to 92 | Cc1ccc(O[C@H]2CCN(C(=O)c3cccc(N4CCCNCC4)n3)C2)cc1 [Example 43, (6-[1,4]Diazepan-1-yl-pyridin-2-yl)-((S)-3-p-tolyloxy-pyrrolidin-1-yl)-methanone] |
| 76.2 | 108 to 110 | Cc1ccc(O[C@@H]2CCN(C(=O)c3cccc(N4CCCN(C)CC4)n3)C2)cc1 [Example 59, [6-(4-Methyl-[1,4]diazepan-1-yl)-pyridin-2-yl]-((R)-3-p-tolyloxy-pyrrolidin-1-yl)-methanone] |
| 94.2 | 122.7 to 123 | CN1CCN(c2cccc(C(=O)N3CCCC[C@@H]3c3cccc(F)c3)n2)CC1 [Example 55, [(R)-2-(3-Fluoro-phenyl)-piperidin-1-yl]-[6-(4-methyl-piperazin-1-yl)-pyridin-2-yl]-methanone] |

Source: US20090197859A1 (Pfizer Inc., priority 2008, published 2009)
